In the supplement of paper PMC11208160:
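Note: IS621 recombinase and bridge RNA in Escherichia coli cells.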

Test: recombinant barcode read abundance after kanamycin selection (control-corrected) (log10(CPM+1)); higher = more efficient recombination; sequences stand for … in AGTGCAGAGAAAATCGGCCAGTTTTCTCTGCCTGCAGTCCGCATGCCGT…AGATTTATGCAGCGGACTGCCTTTCTCCCAAAGTGATAAACCGGACAGTATCATGGACCGGTTTTCCCGGTAATCCGTATTTGCAAGGTTGGTTTCACT; site = the 11-nt target
In short: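 In E. coli, a pooled library matched targets to IS621 bridge RNA target-binding loops and was introduced alongside a donor plasmid. Cells went onto chloramphenicol/ampicillin/kanamycin with 0.1 mM IPTG or onto chloramphenicol/ampicillin LB agar as control, in duplicate. Recombination efficiency, from recombinant-junction barcodes as counts per million, is averaged and control-corrected. It is reported as log10(CPM+1).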
For “ATAATAGCTTGGGTTCTAACCTGTTGCCT (site ATAATAGCTAG)”, the “recombinant barcode read abundance (log10)” value was 1.63. For “CGCCGAACTTGGGTTCTAACCTGTTGCCT (site TGCCGAACTAG)”, the “recombinant barcode read abundance (log10)” value was 0.0386. With “CAATCCTCTTGGGTTCTAACCTGTTGCCT (site TAATCCTCTAG)” the “recombinant barcode read abundance (log10)” value was 0.127. For “CTCTCGTCTTGGGTTCTAACCTGTTGCCT (site CTCTCGTCTAT)”, the “recombinant barcode read abundance (log10)” value was 0.0858. With “GACCGTGCTTGGGTTCTAACCTGTTGCCT (site GACCGTGCTAG)” the “recombinant barcode read abundance (log10)” value was 1.38. In the case of “ACGAATCCTTGGGTTCTAACCTGTTGCTT (site ACGAATCCTAA)”, the “recombinant barcode read abundance (log10)” value is reported as 0.423. With “ACGAGTCCTTGGGTTCTAACCTGTTGCTT (site ACGACTCCTAA)” the “recombinant barcode read abundance (log10)” value was 0.161. For “CATCCTACTTGGGTTCTAACCTGTTGCCT (site TCCAACTCTGT)”, the “recombinant barcode read abundance (log10)” value was 0.153. For “CATTCACCTTGGGTTCTAACCTGTTGCCT (site GATTCACCTAG)”, the “recombinant barcode read abundance (log10)” value was 0.0621. For “TAGCATGCTTGGGTTCTAACCTGTTGCAA (site TAGCATGCTGT)”, the “recombinant barcode read abundance (log10)” value was 0.115. With “GGATACACTTGGGTTCTAACCTGTTGCCA (site GGATCCACTTG)” the “recombinant barcode read abundance (log10)” value was 0.041. For “ACACTAACTTGGGTTCTAACCTGTTGCCT (site ACACTAACTAG)”, the “recombinant barcode read abundance (log10)” value was 0.404. For “GGTTCCTCTTGGGTTCTAACCTGTTGCCT (site GGATCGTCTAG)”, the “recombinant barcode read abundance (log10)” value was 0.0714. For “GTCGCGGCTTGGGTTCTAACCTGTTGCCT (site GTCGCGACTAG)”, the “recombinant barcode read abundance (log10)” value was 0.454. With “TGTTGACCTTGGGTTCTAACCTGTTGCAT (site TGTTGACCTAT)” the “recombinant barcode read abundance (log10)” value was 0.329. In the case of “TAATCGGCTTGGGTTCTAACCTGTTGCCT (site TAATCGACTAG)”, the “recombinant barcode read abundance (log10)” value is reported as 0.0571. In the case of “CCGCATACTTGGGTTCTAACCTGTTGCCT (site CCGCATACTAG)”, the “recombinant barcode read abundance (log10)” value is reported as 0.277. In the case of “TGAGGGTCTTGGGTTCTAACCTGTTGCTT (site CGAGGGTCTAA)”, the “recombinant barcode read abundance (log10)” value is reported as 0.136. For “CGACACACTTGGGTTCTAACCTGTTGCCT (site CGGCACACTAG)”, the “recombinant barcode read abundance (log10)” value was 0.0559. For “TGATTTCCTTGGGTTCTAACCTGTTGCCT (site TGATTTCCTAG)”, the “recombinant barcode read abundance (log10)” value was 0. With “AGTCGTACTTGGGTTCTAACCTGTTGCCT (site AGACGTACTAG)” the “recombinant barcode read abundance (log10)” value was 0.166. In the case of “TACTTCGCTTGGGTTCTAACCTGTTGCCT (site TACTTCGCTAG)”, the “recombinant barcode read abundance (log10)” value is reported as 0.193. For “TAGTGCTCTTGGGTTCTAACCTGTTGCCA (site TAGTGCTCTAG)”, the “recombinant barcode read abundance (log10)” value was 0.444. In the case of “GTCTCATCTTGGGTTCTAACCTGTTGCCT (site GTCTAATCTAG)”, the “recombinant barcode read abundance (log10)” value is reported as 0.0787. For “CTTTCACCTTGGGTTCTAACCTGTTGCCT (site CTTTCACCTAG)”, the “recombinant barcode read abundance (log10)” value was 0.547. In the case of “TGGCCAACTTGGGTTCTAACCTGTTGCGT (site TAGTCAACTAC)”, the “recombinant barcode read abundance (log10)” value is reported as 0.434. For “CTACGATCTTGGGTTCTAACCTGTTGCAC (site CTACGGTCTGT)”, the “recombinant barcode read abundance (log10)” value was 0.375. With “CGCTCCTCTTGGGTTCTAACCTGTTGCCT (site TGCTCCTCTAG)” the “recombinant barcode read abundance (log10)” value was 0.103. For “AGCTGTCCTTGGGTTCTAACCTGTTGCAG (site AGCTGTCCTCT)”, the “recombinant barcode read abundance (log10)” value was 0.273. In the case of “ACCTGTACTTGGGTTCTAACCTGTTGCCT (site ACCGGTACTAG)”, the “recombinant barcode read abundance (log10)” value is reported as 0.0956. For “GGATGGACTTGGGTTCTAACCTGTTGCTT (site GGATGGACTAA)”, the “recombinant barcode read abundance (log10)” value was 1.96. In the case of “ACAACCACTTGGGTTCTAACCTGTTGCCT (site ACAACGACTAG)”, the “recombinant barcode read abundance (log10)” value is reported as 0.0258. In the case of “CTATTGTCTTGGGTTCTAACCTGTTGCGT (site CTATTGTCTAC)”, the “recombinant barcode read abundance (log10)” value is reported as 2.78. In the case of “CGTACCTCTTGGGTTCTAACCTGTTGCTG (site CGTACCTCTAA)”, the “recombinant barcode read abundance (log10)” value is reported as 0.21. With “AACTATCCTTGGGTTCTAACCTGTTGCAT (site AACTTTCCTAT)” the “recombinant barcode read abundance (log10)” value was 0.196. In the case of “TAGAAAGCTTGGGTTCTAACCTGTTGCCA (site TAGGAAGCTTC)”, the “recombinant barcode read abundance (log10)” value is reported as 0.139. In the case of “AGGAGTCCTTGGGTTCTAACCTGTTGCGT (site AGGAGTCCTAC)”, the “recombinant barcode read abundance (log10)” value is reported as 2.57. For “CTGTGCCCTTGGGTTCTAACCTGTTGCCT (site CTGTGCCCTAG)”, the “recombinant barcode read abundance (log10)” value was 0.574. For “ATATCGTCTTGGGTTCTAACCTGTTGCCT (site ATATCGTCTAG)”, the “recombinant barcode read abundance (log10)” value was 1.61. For “GTCGGAGCTTGGGTTCTAACCTGTTGCGG (site GTCGGAGCTCA)”, the “recombinant barcode read abundance (log10)” value was 0.282. For “TAGGGTTCTTGGGTTCTAACCTGTTGCGG (site TAGGGTTCTCC)”, the “recombinant barcode read abundance (log10)” value was 3.01. In the case of “ACAAGCACTTGGGTTCTAACCTGTTGCCT (site ACAAGCACTAG)”, the “recombinant barcode read abundance (log10)” value is reported as 1.46. With “ATATGTACTTGGGTTCTAACCTGTTGCAG (site ATACGGACTCT)” the “recombinant barcode read abundance (log10)” value was 0. With “CTAGACTCTTGGGTTCTAACCTGTTGCTC (site CTAGACTCTGA)” the “recombinant barcode read abundance (log10)” value was 2.84. In the case of “TTGGTGCCTTGGGTTCTAACCTGTTGCCT (site TTGGTCCCTAG)”, the “recombinant barcode read abundance (log10)” value is reported as 0.0442. For “GTAAACCCTTGGGTTCTAACCTGTTGCGG (site GTAAACCCTCC)”, the “recombinant barcode read abundance (log10)” value was 2.33. For “GACTGCCCTTGGGTTCTAACCTGTTGCCT (site GTCTGCCCTAG)”, the “recombinant barcode read abundance (log10)” value was 0.129. For “GCCGAGTCTTGGGTTCTAACCTGTTGCTG (site GCCGAGTCTTA)”, the “recombinant barcode read abundance (log10)” value was 0.219. In the case of “TTGGTACCTTGGGTTCTAACCTGTTGCCT (site TTGGTGCCTAG)”, the “recombinant barcode read abundance (log10)” value is reported as 0.138. In the case of “GATAGGACTTGGGTTCTAACCTGTTGCGT (site GATAGGACTAC)”, the “recombinant barcode read abundance (log10)” value is reported as 2.12. For “GAGATGTCTTGGGTTCTAACCTGTTGCCT (site GAGATGTCTAG)”, the “recombinant barcode read abundance (log10)” value was 2.43. For “CATTACTCTTGGGTTCTAACCTGTTGCTT (site CATTACTCTAA)”, the “recombinant barcode read abundance (log10)” value was 0.622. In the case of “ATCCATCCTTGGGTTCTAACCTGTTGCCT (site ATCCATCCTAG)”, the “recombinant barcode read abundance (log10)” value is reported as 0.969. For “GTCCTAACTTGGGTTCTAACCTGTTGCAC (site GTCCTACCTTT)”, the “recombinant barcode read abundance (log10)” value was 0.0749. In the case of “CTACTAGCTTGGGTTCTAACCTGTTGCAG (site CTACTAGCTCT)”, the “recombinant barcode read abundance (log10)” value is reported as 2.5. For “ATGTATTCTTGGGTTCTAACCTGTTGCCT (site AACTATTCTAG)”, the “recombinant barcode read abundance (log10)” value was 0.0758. For “AGCTGTCCTTGGGTTCTAACCTGTTGCAG (site TAGGCGGCTAC)”, the “recombinant barcode read abundance (log10)” value was 0.0556. With “GTGTACTCTTGGGTTCTAACCTGTTGCTT (site GTGGACTCTTA)” the “recombinant barcode read abundance (log10)” value was 0.0612. For “AGCGAGGCTTGGGTTCTAACCTGTTGCCT (site AGCGAAGCTAG)”, the “recombinant barcode read abundance (log10)” value was 0.0233. With “GCGTCTACTTGGGTTCTAACCTGTTGCCT (site GCGTCTACTAG)” the “recombinant barcode read abundance (log10)” value was 0.169. In the case of “TACAGTCCTTGGGTTCTAACCTGTTGCCT (site TACAGTCCTAG)”, the “recombinant barcode read abundance (log10)” value is reported as 1.06. With “GACTATGCTTGGGTTCTAACCTGTTGCCT (site GGCTATGCTAG)” the “recombinant barcode read abundance (log10)” value was 0.0633. For “ATCCAACCTTGGGTTCTAACCTGTTGCCT (site ATCCATCCTAG)”, the “recombinant barcode read abundance (log10)” value was 0.0128. In the case of “GAGGGCCCTTGGGTTCTAACCTGTTGCGG (site GAGGGCCCTCA)”, the “recombinant barcode read abundance (log10)” value is reported as 1.94. In the case of “GCCGGTCCTTGGGTTCTAACCTGTTGCCT (site GCTGGTCCTAG)”, the “recombinant barcode read abundance (log10)” value is reported as 0.14. In the case of “ACATACACTTGGGTTCTAACCTGTTGCCT (site ACCTACCCTAG)”, the “recombinant barcode read abundance (log10)” value is reported as 0.298. With “AGTCCACCTTGGGTTCTAACCTGTTGCCT (site CGTCCACCTAG)” the “recombinant barcode read abundance (log10)” value was 0.166. With “GGACCTCCTTGGGTTCTAACCTGTTGCGT (site GGACCTCCTAG)” the “recombinant barcode read abundance (log10)” value was 0.272. In the case of “TTAGTCGCTTGGGTTCTAACCTGTTGCCT (site TTAGTCGCTAG)”, the “recombinant barcode read abundance (log10)” value is reported as 2.28. With “TCCTGTGCTTGGGTTCTAACCTGTTGCCT (site TTCTATGCTAG)” the “recombinant barcode read abundance (log10)” value was 0.00897. For “TACACTACTTGGGTTCTAACCTGTTGCAT (site TACCCTACTAT)”, the “recombinant barcode read abundance (log10)” value was 0.134. With “ACACCACCTTGGGTTCTAACCTGTTGCCT (site AAACCACCTAG)” the “recombinant barcode read abundance (log10)” value was 0.585. With “ATCCACCCTTGGGTTCTAACCTGTTGCCT (site ATCCATCCTAG)” the “recombinant barcode read abundance (log10)” value was 0.0749. For “TCACTTGCTTGGGTTCTAACCTGTTGCCT (site TCACATGCTAG)”, the “recombinant barcode read abundance (log10)” value was 0.0105. With “CGGAAGTCTTGGGTTCTAACCTGTTGCCT (site CGGAAGTCTAG)” the “recombinant barcode read abundance (log10)” value was 1.7. In the case of “ACGAATCCTTGGGTTCTAACCTGTTGCTT (site ACGATTCCTAA)”, the “recombinant barcode read abundance (log10)” value is reported as 0.0624. In the case of “AGTTGTCCTTGGGTTCTAACCTGTTGCGT (site AGTTGTCCTAC)”, the “recombinant barcode read abundance (log10)” value is reported as 1.21. In the case of “CTCGTAACTTGGGTTCTAACCTGTTGCCT (site CTCGTAACTAG)”, the “recombinant barcode read abundance (log10)” value is reported as 0.361. In the case of “GTTTCAACTTGGGTTCTAACCTGTTGCGT (site AAGAACTCTCG)”, the “recombinant barcode read abundance (log10)” value is reported as 0.18. For “GACTTTCCTTGGGTTCTAACCTGTTGCAT (site GACTTACCTAT)”, the “recombinant barcode read abundance (log10)” value was 0.01. For “GGGCAGCCTTGGGTTCTAACCTGTTGCCT (site GGGCAACCTAC)”, the “recombinant barcode read abundance (log10)” value was 0.0939. For “CAAGAGTCTTGGGTTCTAACCTGTTGCTT (site CGAGAGACTAA)”, the “recombinant barcode read abundance (log10)” value was 0.178. In the case of “TAGTGCTCTTGGGTTCTAACCTGTTGCCG (site TAGTGCTCTAG)”, the “recombinant barcode read abundance (log10)” value is reported as 0.595. With “GCCTGCCCTTGGGTTCTAACCTGTTGCCT (site GTCTGCCCTAG)” the “recombinant barcode read abundance (log10)” value was 0.0318. In the case of “TGTATAGCTTGGGTTCTAACCTGTTGCTA (site GGTTTAGCTTA)”, the “recombinant barcode read abundance (log10)” value is reported as 0.00884. In the case of “CGATTACCTTGGGTTCTAACCTGTTGCCT (site CGATTATCTAG)”, the “recombinant barcode read abundance (log10)” value is reported as 0.11.
